In patent US12679878B2, “CRF2 receptor agonists and their use in therapy” (SANOFI, priority 2020, dated 2026):
≈ marks a conversion by molar mass, not a printed value. Starred links: 1 amine or outer side, 2 acyl side, 3 side chain; linkers in the order of their positions; H or OH if unused. Non-standard residues stand in square brackets, D forms with d. Residues, ends and D or L forms follow the SMILES beside them. Groups on a side chain read outwards from the residue. *: point of attachment. C16 diacid = O=C(O)CCCCCCCCCCCCCCC(=O)*; γGlu = O=C(O)[C@H](CCC(=O)[*:2])N[*:1]; Palmitoyl = CCCCCCCCCCCCCCCC(=O)*; Aib = CC(C)(N)C(=O)O

Key:
CRF2R = molecular target: T1, CRF2R (Homo sapiens, UniProt Q13324); assay: EC50 [nM] CRF2R
T1 construct: expressed in transfected cells; host or cells: TeloHEAC
Source text: Table printed on a drawing sheet, Fig. 3
Head of the field: EC50 [nM] CRF2R
The patent's description of the figure: FIG. 3: Representative sequences from peptides according to the invention with an optimized stability profile, wherein K[sema] stands for K[gGlu-C(O)(CH2)14CH3]
First copying reader's note: Second half (positions 13-38, C-term and activity) of the first table; the rows follow the same order, so the four rows of Peptide Seq. 1 are Patent Sequence N° 130, 171, 172 and 173.
Where the first naming reader finds the target: head: EC50 [nM] CRF2R

CRF1R receptor = molecular target: T2, CRF1R receptor (Homo sapiens, UniProt P34998); assay: cAMP activity at anti-target CRF1R, CHO-K1 cell line clone 2 (Example 19.10); assay type: cell-based; settings: ratio of CRF1 EC50 to CRF2 EC50
T2 construct: host or cells: CHO-K1 clone 2
T2 sequence (P34998 24-415): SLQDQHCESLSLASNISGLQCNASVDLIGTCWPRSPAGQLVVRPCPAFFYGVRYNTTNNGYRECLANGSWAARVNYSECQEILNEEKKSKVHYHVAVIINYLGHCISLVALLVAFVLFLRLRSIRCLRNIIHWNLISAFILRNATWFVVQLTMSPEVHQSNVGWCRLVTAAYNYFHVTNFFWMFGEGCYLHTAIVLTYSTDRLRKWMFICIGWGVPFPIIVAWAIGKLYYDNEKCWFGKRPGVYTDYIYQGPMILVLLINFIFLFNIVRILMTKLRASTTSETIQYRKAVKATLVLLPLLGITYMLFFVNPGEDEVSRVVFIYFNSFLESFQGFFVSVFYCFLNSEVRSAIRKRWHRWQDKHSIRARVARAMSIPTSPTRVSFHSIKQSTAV
Outline: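 The cAMP read-out used the same protocol as the previous assay, except that Sauvagine at 100 nM set the 100% activation control. Cells were CHO-K1 clone 2 overexpressing CRF1R, cultured in F12 medium with 10% FBS and G418 and stored frozen until use.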

human CRF2α receptor = molecular target: T3, human CRF2α receptor (Homo sapiens, UniProt Q13324); assay: cAMP agonism at human CRF2α receptor in TeloHEAC cells, FA modified peptides (Example 19.9); assay type: cell-based; settings: 0% HSA, relative to urocortin 2
T3 construct: expressed in transfected cells; host or cells: TeloHEAC
T3 sequence (Q13324 1-411): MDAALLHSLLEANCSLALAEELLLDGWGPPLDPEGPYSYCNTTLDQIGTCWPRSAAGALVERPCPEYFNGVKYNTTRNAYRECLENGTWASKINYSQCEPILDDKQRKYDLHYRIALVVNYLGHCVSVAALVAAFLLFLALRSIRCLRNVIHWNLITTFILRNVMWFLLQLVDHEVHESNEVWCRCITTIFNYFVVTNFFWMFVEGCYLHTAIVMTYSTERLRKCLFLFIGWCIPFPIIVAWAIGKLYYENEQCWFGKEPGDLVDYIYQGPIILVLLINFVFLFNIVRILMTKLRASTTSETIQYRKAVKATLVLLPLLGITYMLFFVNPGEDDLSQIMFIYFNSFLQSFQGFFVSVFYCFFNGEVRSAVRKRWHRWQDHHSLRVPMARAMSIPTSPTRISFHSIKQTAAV
Outline: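 Efficacy and EC50 are referenced to 100 nM urocortin 2 as 100%, with cAMP measured as the 665/620 nm HTRF ratio after 1 h at room temperature. Compounds (0.5 mM DMSO stock, 16 twofold dilutions) acted 30 min at 37 °C on CRF2α-expressing TeloHEAC cells, buffer containing IBMX and 0% or 0.2% HSA.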

[1] = Chemical stability as % loss by LC-UV, 28 days 40° C. vs 5° C. (Example 19.11); assay type: physicochemical
Method: (§1) As for example 15 above, also the chemical stability of representative examples of these FA modified peptides has been assessed, using LC-UV instead of light scattering. Solubility and chemical stability were studied in 100 mM phosphate buffer (pH 7.4) and 100 mM acetate buffer (pH 4.5). Test compound powders were dissolved in both buffers at a target concentration of 10 mg/mL and incubated for 1 hour at room temperature. After centrifugation at 2500 rcf for 15 minutes, […] of supernatant was diluted with […] of the incubation buffer and analyzed by LC-UV (Acquity UPLC-DAD, Waters). Solubility was calculated by comparing the peak area of the test compound in the buffer sample with the peak area of the same compound dissolved at 0.5 mg/ml in water:acetonitrile 1:1, 0.1% formic acid.
From the centrifuged supernatant, two additional […] aliquots were collected and diluted with […] of incubation buffer. One aliquot was stored at 5° C., while the other was stored at 40° C. After 28 days, the samples were analyzed by LC-UV. Chemical stability was calculated as % loss using the following equations: • Chemical stability (as % loss)=[(purity after 28 days at 5° C.)−(purity after 28 days at 40° C.)]×100/(purity after 28 days at 5° C.) % purity=[(peak area compound)×100/(total peak area)]

[2] = Buffer solubility by LC-UV, pH 7.4 phosphate and pH 4.5 acetate (Example 19.11); assay type: physicochemical; settings: target 10 mg/mL
Method: as §1

CCCCCCCCCCCCCCCC(=O)N[C@@H](CCC(=O)NCCCC[C@H](NC(=O)[C@H](CC(C)C)NC(=O)[C@H](CCCCN)NC(=O)[C@@H](NC(=O)[C@@H]1CCCN1C(=O)[C@@H](NC(=O)[C@H](CC(=O)O)NC(=O)[C@H](CC(C)C)NC(=O)[C@H](CO)NC(=O)[C@H](CC(C)C)NC(=O)[C@@H](NC(=O)[C@@H](N)[C@@H](C)CC)C(C)C)C(C)C)[C@@H](C)CC)C(=O)N[C@@H](CCCCN)C(=O)N[C@H](C(=O)N[C@@H](CC(C)C)C(=O)N[C@@H](CC(C)C)C(=O)N[C@@H](CCC(=O)O)C(=O)N[C@@H](CCC(N)=O)C(=O)N[C@@H](CCC(=O)O)C(=O)N[C@@H](CCCCN)C(=O)N[C@@H](CCC(N)=O)C(=O)N[C@@H](CCC(=O)O)C(=O)N[C@@H](CCCCN)C(=O)N[C@@H](CCC(=O)O)C(=O)N[C@@H](CCCCN)C(=O)N[C@@H](CCC(N)=O)C(=O)N[C@@H](CCC(N)=O)C(=O)N[C@@H](C)C(=O)N[C@@H](CCC(=O)O)C(=O)N[C@H](C(=O)N[C@@H](CC(N)=O)C(=O)N[C@@H](C)C(=O)N[C@@H](CCC(N)=O)C(=O)N[C@H](C(=O)N[C@@H](CC(C)C)C(=O)N[C@@H](C)C(=O)N[C@@H](CCC(N)=O)C(=O)N[C@H](C(N)=O)C(C)C)[C@@H](C)CC)[C@@H](C)O)[C@@H](C)CC)C(=O)O [SEQ ID NO: 2] (H-IVLSLDVPIKLK([γGlu-Palmitoyl])KILLEQEKQEKEKQQAETNAQILAQV-NH2)
EC50 (CRF2R): 0.07 nM

CCCCCCCCCCCCCCCC(=O)N[C@@H](CCC(=O)NCCCC[C@H](NC(=O)[C@H](CC(C)C)NC(=O)[C@H](CCCCN)NC(=O)[C@@H](NC(=O)[C@@H]1CCCN1C(=O)[C@@H](NC(=O)[C@H](CC(=O)O)NC(=O)[C@H](CC(C)C)NC(=O)[C@H](CO)NC(=O)[C@H](CC(C)C)NC(=O)[C@@H](NC(=O)[C@@H](N)[C@@H](C)CC)C(C)C)C(C)C)[C@@H](C)CC)C(=O)N[C@@H](CCCCN)C(=O)N[C@H](C(=O)N[C@@H](CC(C)C)C(=O)N[C@@H](CC(C)C)C(=O)N[C@@H](CCC(=O)O)C(=O)N[C@@H](CCC(N)=O)C(=O)N[C@@H](CCC(=O)O)C(=O)N[C@@H](CCCCN)C(=O)N[C@@H](CCC(N)=O)C(=O)N[C@@H](CCC(=O)O)C(=O)N[C@@H](CCCCN)C(=O)N[C@@H](CCC(=O)O)C(=O)N[C@@H](CCCCN)C(=O)N[C@@H](CCC(N)=O)C(=O)N[C@@H](CCC(N)=O)C(=O)N[C@@H](C)C(=O)N[C@@H](CCC(=O)O)C(=O)N[C@@H](CCCCN)C(=O)N[C@@H](CC(N)=O)C(=O)N[C@@H](C)C(=O)N[C@@H](CCC(N)=O)C(=O)N[C@H](C(=O)N[C@@H](CC(C)C)C(=O)N[C@@H](C)C(=O)N[C@@H](CCC(N)=O)C(=O)N[C@H](C(N)=O)C(C)C)[C@@H](C)CC)[C@@H](C)CC)C(=O)O [SEQ ID NO: 3] (H-IVLSLDVPIKLK([γGlu-Palmitoyl])KILLEQEKQEKEKQQAEKNAQILAQV-NH2)
EC50 (CRF2R): 0.04 nM

CCCCCCCCCCCCCCCC(=O)N[C@@H](CCC(=O)NCCCC[C@H](NC(=O)[C@H](CC(C)C)NC(=O)CNC(=O)[C@@H](NC(=O)[C@@H]1CCCN1C(=O)[C@@H](NC(=O)[C@H](CC(=O)O)NC(=O)[C@H](CC(C)C)NC(=O)[C@H](CO)NC(=O)[C@H](CC(C)C)NC(=O)[C@@H](NC(=O)[C@@H](N)[C@@H](C)CC)C(C)C)C(C)C)[C@@H](C)CC)C(=O)N[C@@H](CCC(N)=O)C(=O)N[C@@H](CCCCN)C(=O)N[C@@H](CC(C)C)C(=O)N[C@@H](CC(C)C)C(=O)N[C@@H](CCCCN)C(=O)N[C@@H](CCC(N)=O)C(=O)N[C@@H](CCC(=O)O)C(=O)N[C@@H](CCCCN)C(=O)N[C@@H](CCC(N)=O)C(=O)N[C@@H](CCC(=O)O)C(=O)N[C@@H](CCCCN)C(=O)N[C@@H](CCC(=O)O)C(=O)N[C@@H](CCCCN)C(=O)N[C@@H](CCC(N)=O)C(=O)N[C@@H](CCC(N)=O)C(=O)N[C@@H](C)C(=O)N[C@@H](CCC(=O)O)C(=O)N[C@H](C(=O)N[C@@H](CC(N)=O)C(=O)N[C@@H](C)C(=O)N[C@@H](CCCCN)C(=O)N[C@H](C(=O)N[C@@H](CC(C)C)C(=O)N[C@@H](C)C(=O)N[C@@H](CCC(N)=O)C(=O)N[C@H](C(N)=O)C(C)C)[C@@H](C)CC)[C@@H](C)O)C(=O)O [SEQ ID NO: 4] (H-IVLSLDVPIGLK([γGlu-Palmitoyl])QKLLKQEKQEKEKQQAETNAKILAQV-NH2)
EC50 (CRF2R): 0.05 nM

CC[C@H](C)[C@H](N)C(=O)N[C@H](C(=O)N[C@@H](CC(C)C)C(=O)N[C@@H](CO)C(=O)N[C@@H](CC(C)C)C(=O)N[C@@H](CC(=O)O)C(=O)N[C@@H](C(=O)N1CCC[C@H]1C(=O)N[C@H](C(=O)N[C@@H](CCCCN)C(=O)N[C@@H](CC(C)C)C(=O)N[C@@H](CCCCNC(=O)CC[C@H](NC(=O)CCCCCCCCCCCCCCC(=O)O)C(=O)O)C(=O)N[C@@H](CCC(N)=O)C(=O)N[C@H](C(=O)N[C@@H](CC(C)C)C(=O)N[C@@H](CC(C)C)C(=O)N[C@@H](CCCCN)C(=O)N[C@@H](CCC(N)=O)C(=O)N[C@@H](CCC(=O)O)C(=O)N[C@@H](CCCNC(=N)N)C(=O)N[C@@H](CCC(N)=O)C(=O)N[C@@H](CCCCN)C(=O)NC(C)(C)C(=O)N[C@@H](CCC(N)=O)C(=O)N[C@@H](CCCNC(=N)N)C(=O)N[C@@H](CCC(N)=O)C(=O)N[C@@H](CCC(N)=O)C(=O)N[C@@H](C)C(=O)N[C@@H](CCC(=O)O)C(=O)N[C@@H](CCCCN)C(=O)N[C@@H](CC(N)=O)C(=O)N[C@@H](CCCCN)C(=O)N[C@@H](CCC(N)=O)C(=O)N[C@H](C(=O)N[C@@H](CC(C)C)C(=O)N[C@@H](C)C(=O)N[C@@H](CCC(N)=O)C(=O)N[C@H](C(N)=O)C(C)C)[C@@H](C)CC)[C@@H](C)CC)[C@@H](C)CC)C(C)C)C(C)C [compound 188] (H-IVLSLD[dV]PIKLK([γGlu-C16 diacid])QILLKQERQK[Aib]QRQQAEKNKQILAQV-NH2; N-terminus assumed)
CRF1/CRF2 ratio (CRF1R receptor): 134 | EC50 (human CRF2α receptor): 0.46 nM | % loss (chemical stability) ([1]; pH 4.5): 0% | % loss (chemical stability) ([1]; pH 7.4): 40% | solubility at 1 h ([2]; pH 4.5, 100 mM acetate buffer): 8300 µg/mL (≈ 1710 µM) | solubility at 1 h ([2]; pH 7.4, 100 mM phosphate buffer): 7900 µg/mL (≈ 1630 µM)
